Earlier results in article PMC5641599 (Molecular Metabolism, 2017).
Like-named read-outs stand apart in the source and are kept apart here.

Test system: MC4R variants
Settings: cited from earlier work

NDP-MSH
Binding Bmax (% of WT) (MC4R I301T, ref Vaisse C, J Clin Invest, 2000): 20.0 % of WT | Binding Bmax (% of WT) (MC4R I301T, ref Xiang Z, Biochemistry, 2006): 35.6 % of WT | Binding Bmax (% of WT) (MC4R I316S, ref Xiang Z, Biochemistry, 2006): 55.6 % of WT | Binding Bmax (% of WT) (MC4R I316S, ref Yeo GS, Hum Mol Genet, 2003): 28.0 % of WT | Binding Bmax (% of WT) (MC4R I317T, ref Nijenhuis WA, J Biol Chem, 2003): 42.0 % of WT | Binding Bmax (% of WT) (MC4R I317T, ref VanLeeuwen, J Biol Chem, 2003): 66.7 % of WT | Binding Bmax (% of WT) (MC4R I317T, ref Xiang Z, Biochemistry, 2006): 20.0 % of WT | Binding Bmax (% of WT) (MC4R I317V, ref Fan ZC, J Cell Mol Med, 2009): 94.0 % of WT | Binding Bmax (% of WT) (MC4R I317V, ref Xiang Z, Biochemistry, 2010): 91.9 % of WT | Binding Bmax (% of WT) (MC4R L54P, ref Tan K, Endocrinology, 2009): 32.5 % of WT | Binding Bmax (% of WT) (MC4R L106P, ref Xiang Z, Biochemistry, 2006): 2.2 % of WT | Binding Bmax (% of WT) (MC4R L106P, ref Yeo GS, Hum Mol Genet, 2003): 18.7 % of WT | Binding Bmax (% of WT) (MC4R L304F, ref van der Berg L, Obesity, 2011): 40.0 % of WT | Binding Bmax (% of WT) (MC4R L325F, ref Fan ZC, J Cell Mol Med, 2009): 92.0 % of WT | Binding Bmax (% of WT) (MC4R L325F, ref Larsen LH, J Clin Endocrinol Metab, 2005): 0.0 % of WT | Binding Bmax (% of WT) (MC4R L325F, ref Xiang Z, Biochemistry, 2010): 70.3 % of WT | Binding Bmax (% of WT) (MC4R N62S, HEK293 cell line, ref Huang H, Int J Biol Sci, 2014): 25.0 % of WT | Binding Bmax (% of WT) (MC4R N62S, ref Tao YX, Endocrinology, 2003): 5.0 % of WT | Binding Bmax (% of WT) (MC4R N62S, ref Xiang Z, Biochemistry, 2006): 1.4 % of WT | Binding Bmax (% of WT) (MC4R N62S, ref Yeo GS, Hum Mol Genet, 2003): 20.0 % of WT | Binding Bmax (% of WT) (MC4R N97D, ref Xiang Z, Biochemistry, 2006): 8.9 % of WT | Binding Bmax (% of WT) (MC4R N97D, ref Yeo GS, Hum Mol Genet, 2003): 10.5 % of WT | Binding Bmax (% of WT) (MC4R N274S, ref Tao YX, Endocrinology, 2003): 144.0 % of WT | Binding Bmax (% of WT) (MC4R N274S, ref Xiang Z, Biochemistry, 2006): 66.7 % of WT | Binding Bmax (% of WT) (MC4R P48S, ref Tao YX, Endocrinology, 2003): 79.0 % of WT | Binding Bmax (% of WT) (MC4R P48S, ref Xiang Z, Biochemistry, 2010): 48.6 % of WT | Binding Bmax (% of WT) (MC4R P78L, HEK293 cell line, ref Huang H, Int J Biol Sci, 2014): 0.0 % of WT | Binding Bmax (% of WT) (MC4R P78L, ref Nijenhuis WA, J Biol Chem, 2003): 0.9 % of WT | Binding Bmax (% of WT) (MC4R P78L, ref Tao YX, Endocrinology, 2003): 0.0 % of WT | Binding Bmax (% of WT) (MC4R P78L, ref Xiang Z, Biochemistry, 2006): 0.556 % of WT | Binding Bmax (% of WT) (MC4R P299H, ref Roubert P, J Endocrinol, 2010): 0.0 % of WT | Binding Bmax (% of WT) (MC4R P299H, ref Xiang Z, Biochemistry, 2006): 1.2 % of WT | Binding Bmax (% of WT) (MC4R P299L, ref Xiang Z, Biochemistry, 2010): 2.4 % of WT | Binding Bmax (% of WT) (MC4R R305W, ref Roubert P, J Endocrinol, 2010): 193.9 % of WT | Binding Bmax (% of WT) (MC4R S58C, ref Roubert P, J Endocrinol, 2010): 27.6 % of WT | Binding Bmax (% of WT) (MC4R S58C, ref Tao YX, Endocrinology, 2003): 14.0 % of WT | Binding Bmax (% of WT) (MC4R S58C, ref Xiang Z, Biochemistry, 2006): 22.2 % of WT | Binding Bmax (% of WT) (MC4R S94R, ref Xiang Z, Biochemistry, 2010): 0.135 % of WT | Binding Bmax (% of WT) (MC4R S295P, ref Tao YX, J Clin Endocrinol Metab, 2005): 129.0 % of WT | Binding Bmax (% of WT) (MC4R S295P, ref Xiang Z, Biochemistry, 2010): 162.2 % of WT | Binding Bmax (% of WT) (MC4R T112M, ref Nijenhuis WA, J Biol Chem, 2003): 100.0 % of WT | Binding Bmax (% of WT) (MC4R T112M, ref Tao YX, J Clin Endocrinol Metab, 2005): 130.0 % of WT | Binding Bmax (% of WT) (MC4R V50M, ref Roubert P, J Endocrinol, 2010): 69.4 % of WT | Binding Bmax (% of WT) (MC4R V50M, ref Tao YX, Endocrinology, 2003): 74.0 % of WT | Binding Bmax (% of WT) (MC4R V50M, ref Xiang Z, Biochemistry, 2010): 59.5 % of WT | Binding Bmax (% of WT) (MC4R V95I, ref Xiang Z, Biochemistry, 2006): 0.7 % of WT | Binding Bmax (% of WT) (MC4R V103I, ref Ho G, J Biol Chem, 1999): 123.3 % of WT | Binding Bmax (% of WT) (MC4R V103I, ref Xiang Z, Biochemistry, 2006): 100.0 % of WT | Binding Bmax (% of WT) (MC4R Y302F, ref Roth CL, Endocrine, 2009): 80.0 % of WT | Binding Bmax (% of WT) (MC4R Y332H, ref Santoro N, BMC Med Genet, 2009): 100.0 % of WT
